We go through one compound from patent publication US20260144769A1, “4-PHENYLBUTYRATE RESTORED GABA UPTAKE AND REDUCED SEIZURES IN SLC6A1 VARIANT-MEDIATED DISORDERS” (Vanderbilt University, priority 2022, published 2026).

One assay addresses T1, GAT-1 (Rattus norvegicus, UniProt P23978).
T1 construct: EYFP (N); expressed in transfected cells; host or cells: HEK (HEK293T) cells
Briefly: 3H GABA uptake, HEK cells transfected with GAT-1 cDNA with or without PBA (dual therapy). It is filed as cell-based. As to the method:
In cell models, HEK293T cells were transfected with SLC6A1, SLC6A1(A288V) or SLC6A1(S295L) cDNAs. The live cells were then fluxed and evaluated for GABA uptake with a 3H radiolabeling GABA uptake assay. In order to evaluate gene expression and protein trafficking, total protein from cell lysates were subjected to SDS-PAGE and immunoblotted for GAT-1 and GFP. Gene expression was evaluated at a variety of gene therapy dosages.

For assay [1], the system named is wildtype GAT-1 + GAT-1 S295L. Kind of assay: 3H GABA uptake, HEK293T, mixture of wildtype and mutant cDNAs ("heterozygous"). Type of assay: cell-based, rat. The following applies: wildtype:S295L cDNAs 1:1; PBA 2 mM, 24 hrs. The protocol: (§1) GABA uptake activity was measured by the high-throughput 3H radio-labeling GABA uptake on a liquid scintillator with QuantaSmart. […] HEK293T cells were transfected with the wildtype or the mutant GAT-1^YFP cDNAs alone for 48 hr. […] HEK293T cells were transfected with the wildtype GAT-1^YFP alone or in mixture of the wildtype or the mutant cDNAs for 48 hr. In the mixed condition, the ratio of the wildtype GAT-1 with pcDNA or the mutant cDNAs are 1:1 with the total cDNA amount of 0.5 μg. […] Both wt and the mutant were normalized to its own DMSO treated conditions. 966 stands for the wildtype treated with CI-966 (50 μM) while 711 stands for NNC-711 (35 μM). (N=4-7 different transfections. In FIG. 4A and FIG. 4B, *P<0.05, **P<0.01, ***p<0.001 vs. wt 0. In FIG. C and FIG. 4D, *P<0.05, **P<0.01, ***p<0.001 vs. its own DMSO treated. In FIG. 4C, ns stands for no significance. One-way analysis of variance (ANOVA) and Newman-Keuls test. Values were expressed as mean±S.E.M.
(§2) The plasmid cDNA encoding enhanced yellow fluorescent protein (EYFP)-tagged rat GAT-1 has been previously described. The coding region of rGAT-1 was inserted into pEYFP-C1 (Clontech, Palo Alto, CA). QuikChange Site-directed Mutagenesis kit was utilized to introduce the GAT-1 variants into a wildtype GAT-1 plasmid. The product was then amplified via polymerase chain reaction, transformed using DH5a competent cells, and plated. A clone was chosen and grown overnight. All the GAT-1 variants were confirmed by DNA sequencing. Both the wildtype and the variant cDNAs were prepared with Qiagen Maxiprep kit.
(§3) Human embryonic kidney cells were cultured as monolayers in 100 mm^2 dishes. Cells were cultured in Dulbecco's Modified Eagle's Medium supplemented with 10% FBS and 1% penicillin/streptomycin in 37° C. in 5% CO2/95% air. Cells were maintained in culture medium until appropriate confluency for experimentation.
(§4) Briefly, cells were cultured in […] dishes for 3 days before the GABA uptake experiment in DMEM with 10% fetal bovine serum and 1% penicillin/streptomycin. The cells were then transfected with equal amounts of the wildtype or the mutant GAT-1 cDNAs (1 μg) for each condition at 24 hrs or 48 hrs after plating. GABA uptake assay was carried out 48 hrs after transfection. The cells were incubated with preincubation solution for 15 min and then incubated with preincubation solution containing 1 μci/mL 3H GABA and 10 μM unlabeled GABA for 30 min at room temperature. After washing, the cells were lysed with 0.25 N NaOH for 1 hr. Glacial acetic acid was added, and lysates were then determined on a liquid scintillator with QuantaSmart. The flux of GABA (pmol/μg/min) was averaged with at least triplets for each condition at each transfection. The average counting was taken as n=1. The untransfected condition was taken as a baseline that was subtracted from both the wildtype and the mutant conditions. The pmol/μg/min in the mutant was then normalized to the wildtype from each experiment, which was arbitrarily taken as 100%. The protocols for GABA reuptake assay in cultured mouse astrocytes, neuron or iPSC derived cells were modified from the GABA uptake protocol on HEK 293T cells. GAT-1 inhibitors CL-966 and NNC-711 were applied each time to make sure the radioactive counts were specific.
(§5) The working solution was stored at 4° C.

Assay [2] deals with wildtype GAT-1 + GAT-1 A288V. The assay is described as above. Type of assay: cell-based, rat. As to conditions: wildtype:A288V cDNAs 1:1; PBA 2 mM, 24 hrs. The protocol:
as §1, §2, §3, §4, §5

For the next assay, the target named is T2, GAT-1 G362R (Rattus norvegicus, UniProt P23978, G362R).
T2 construct: The coding region of rGAT-1 was inserted into pEYFP-C1 (Clontech, Palo Alto, CA); expressed in transfected cells; host or cells: human astrocytes differentiated from CRISPR-corrected patient iPSCs
Briefly: 3H GABA uptake, corrected iPSC astrocytes transfected with GAT-1^YFP cDNA. It is filed as cell-based. As to conditions: 2 mM PBA, 24 hrs. As to the method: (§6) Live images of human neural progenitor cells (NPCs), astrocytes and GABAergic inhibitory neurons differentiated from the human induced pluripotent stem cells (iPSCs) on the day of experiment. […] The DMSO treated corrected or patient cells was taken as 1. […] GABA flux was measured after 30 min transport at room temperature. The influx of GABA, expressed in pmol/μg protein/min, was averaged from duplicates for each condition and for each transfection. The average counting was DMSO treated condition taken as 1. In FIG. 5B, FIG. 5D and FIG. 5F, 966 stands for CI-966 (50 μM) and 711 stands for NNC-711 (35 μM) that was applied 30 min to the astrocytes transfected with the wildtype GAT-1^YFP before preincubation and removed during preincubation. In FIGS. 5B and D, ***p<0.001 vs. corrected DMSO treated. § § <0.01, § § § p<0.001 vs. patient DMSO treated. […] In FIGS. 5B-E, n=4-8 batches of cells. In FIG. 5F, n=4-5 different transfections). Unpaired t test was used for FIG. 5C and FIG. 5E. One-way analysis of variance followed by a Dunnett post hoc multiple comparison test was used in FIG. 5B, FIG. 5D and FIG. 5F. Values were expressed as mean±S.E.M.).
as §2
(§7) Astrocytes were differentiated starting from day 5 of NPC passage 1 with the astrocyte culture medium from Sciencell (catalog 1801) following the protocol as previously described. The cell culture medium was refreshed every other day and the cells were passaged at ˜70% confluency. About 1.5×10^5 cells were seeded in each 35 mm dish or each well in 6-well plate when passaging. The differentiation was continuous until the day 30 and all the astrocytes used in experiments in this study were at day 30 after differentiation.
as §4, §5
(§8) Wildtype or the mutant GAT-1^YFP were transfected (1 μg cDNAs per 35 mm^2 dishes) in the astrocytes derived from the corrected iPSCs for 48 hrs. […]

Another assay has as its target T3, GAT-1 V125M (Rattus norvegicus, UniProt P23978, V125M).
T3 construct: The coding region of rGAT-1 was inserted into pEYFP-C1 (Clontech, Palo Alto, CA); expressed in transfected cells; host or cells: HEK293T cells (A3); astrocytes from corrected human iPSCs (A23)
The assay is described as above. Type of assay: cell-based. As to conditions: 2 mM PBA, 24 hrs. As to the method: as §6, §2, §7, §4, §5, §8

Regarding `O=C(O)CCCc1ccccc1` [PBA, 4-phenylbutyric acid], the “GABA uptake, combined cDNA/PBA treatment vs. cDNA alone” value on GAT-1 (0.25 μg GAT-1 cDNA + 2 mM PBA vs. 0.5 μg GAT-1 cDNA alone) is “No significant difference”. Besides, the “GABA uptake function, dual therapy vs. cDNA treatment alone” value on GAT-1 (equal cDNA amount with PBA, variety of cDNA doses in HEK cells) was “greater GABA uptake function at all but one dose size”. For the same compound, the “GABA uptake normalized to its own DMSO treated condition” value in assay [1] was 1.318±0.062; in assay [2], 1.248±0.053. Further, the “GABA uptake normalized to its DMSO treated” value turned out to be 1.25±0.023 on GAT-1 G362R and 1.285±0.018 at GAT-1 V125M.
